# Measurements published in the supplement of paper PMC10307832.
# Assays:
# Experiment in all cases: relative viability (nuclei count vs DMSO), 5 days (fraction); higher = more cells survive
# Adavosertib + Foretinib = compound: C=CCn1c(=O)c2cnc(Nc3ccc(N4CCN(C)CC4)cc3)nc2n1-c1cccc(C(C)(C)O)n1 [Adavosertib] + COc1cc2c(Oc3ccc(NC(=O)C4(C(=O)Nc5ccc(F)cc5)CC4)cc3F)ccnc2cc1OCCCN1CCOCC1 [Foretinib] (partner 0.25 µM)
# Method in brief: (§1)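 Lung cancer cell lines in 1536-well plates were dosed by pin tool the day after seeding, either with one drug alone or with a fixed anchor-drug dose plus five library-drug doses (not always all listed) in √10 steps. After 5 days, cells were fixed and their nuclei stained in one step (final 0.05% Triton X-100, 1% formaldehyde, 1 ug/ml Hoechst), then counted on 4× images. Relative viability is the nuclei count in treated wells divided by that in vehicle wells. Values are medians of duplicate plates.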
# Nelarabine + OSI-027 = compound: COc1nc(N)nc2c1ncn2[C@@H]1O[C@H](CO)[C@@H](O)[C@@H]1O [Nelarabine] + COc1cccc2cc(-c3nc([C@H]4CC[C@H](C(=O)O)CC4)n4ncnc(N)c34)[nH]c12 [OSI-027] (partner 0.5 µM)
# Method in brief: as §1
# Nelarabine + Lapatinib = compound: COc1nc(N)nc2c1ncn2[C@@H]1O[C@H](CO)[C@@H](O)[C@@H]1O [Nelarabine] + CS(=O)(=O)CCNCc1ccc(-c2ccc3ncnc(Nc4ccc(OCc5cccc(F)c5)c(Cl)c4)c3c2)o1 [Lapatinib] (partner 2 µM)
# Method in brief: as §1
# Nelarabine + Pemetrexed = compound: COc1nc(N)nc2c1ncn2[C@@H]1O[C@H](CO)[C@@H](O)[C@@H]1O [Nelarabine] + Nc1nc2[nH]cc(CCc3ccc(C(=O)N[C@@H](CCC(=O)O)C(=O)O)cc3)c2c(=O)[nH]1 [Pemetrexed] (partner 0.2 µM)
# Method in brief: as §1
Cell Line,relative viability (Adavosertib + Foretinib; first compound 0.01 µM),relative viability (Adavosertib + Foretinib; first compound 0.03162 µM),relative viability (Adavosertib + Foretinib; first compound 0.1 µM),relative viability (Adavosertib + Foretinib; first compound 0.3162 µM),relative viability (Nelarabine + OSI-027; first compound 0.01 µM),relative viability (Nelarabine + OSI-027; first compound 0.03162 µM),relative viability (Nelarabine + OSI-027; first compound 0.1 µM),relative viability (Nelarabine + OSI-027; first compound 0.3162 µM),relative viability (Nelarabine + OSI-027; first compound 1 µM),relative viability (Nelarabine + Lapatinib; first compound 0.01 µM),relative viability (Nelarabine + Lapatinib; first compound 0.03162 µM),relative viability (Nelarabine + Lapatinib; first compound 0.1 µM),relative viability (Nelarabine + Lapatinib; first compound 0.3162 µM),relative viability (Nelarabine + Lapatinib; first compound 1 µM),relative viability (Nelarabine + Pemetrexed; first compound 0.01 µM),relative viability (Nelarabine + Pemetrexed; first compound 0.03162 µM),relative viability (Nelarabine + Pemetrexed; first compound 0.1 µM),relative viability (Nelarabine + Pemetrexed; first compound 0.3162 µM),relative viability (Nelarabine + Pemetrexed; first compound 1 µM)
HCC-15,1.04,0.936,1.2,1.25,0.817,0.559,0.675,0.703,0.778,0.987,0.798,0.928,0.883,0.9,0.233,0.242,0.218,0.212,0.217
EKVX,0.743,1.15,0.755,0.748,0.797,0.661,0.652,0.729,0.685,0.2,0.155,0.168,0.204,0.21,0.431,0.436,0.417,0.506,0.46
BEN,0.523,0.682,0.566,0.695,0.328,0.293,0.541,0.296,0.301,0.905,0.69,0.941,0.684,0.778,0.788,0.822,0.765,0.837,0.752
201T,1.28,1.14,,1.23,0.85,0.638,0.762,1.15,0.85,1.05,1.02,0.999,1.09,1.1,0.378,0.279,0.349,0.417,0.444
SW 1573,0.953,0.914,1.13,1.2,1.19,0.836,0.548,0.701,0.619,1.14,1.13,1.11,1.18,1.2,0.957,0.908,1.01,0.838,0.877
HCC-827,1.07,1.09,1.09,0.929,0.741,0.738,0.76,0.595,0.65,0.196,0.205,0.169,0.179,0.194,0.231,0.235,0.27,0.287,0.231
NCI-H2228,0.837,1.15,0.686,0.472,0.949,0.635,,0.784,0.563,1.1,1.1,,0.974,0.977,0.342,0.346,0.269,0.374,0.4
NCI-H2085,0.785,0.954,0.887,0.921,0.945,0.849,0.664,0.797,0.748,0.889,0.804,0.74,0.754,0.835,0.906,0.865,0.93,0.871,0.87
NCI-H596,1.01,1.03,0.87,0.755,0.82,0.668,0.698,0.692,0.792,1.15,1.13,1.27,0.892,1.07,0.504,0.517,0.574,0.492,0.491
PC-3 [JPC-3],0.957,1.04,1.04,1.04,0.854,0.604,0.73,0.744,0.685,0.508,0.373,0.439,0.451,0.436,0.9,0.866,1.36,1.17,0.751
NCI-H1563,0.882,0.949,1.05,0.931,0.847,0.722,0.785,0.739,0.863,0.944,1.02,0.985,0.998,1.03,0.765,0.811,0.77,0.812,0.787
COR-L23,1.02,0.997,1.08,0.644,0.911,0.611,0.854,0.878,0.759,1.39,1.17,1.12,1.02,0.982,0.205,0.194,0.193,0.184,0.203
RERF-LC-KJ,0.857,0.844,0.882,0.954,0.654,0.524,0.505,0.59,0.627,0.912,0.99,1.01,0.88,0.876,0.477,0.424,0.458,0.489,0.49
HCC-366,0.96,0.935,0.924,1.04,1.3,0.737,0.878,1.28,0.973,1.46,0.952,1.23,1.2,1.17,0.204,0.146,0.202,0.225,0.22
NCI-H460,1.05,0.933,1.1,0.994,1.06,1.08,0.971,1.08,0.79,,1.76,1.84,1.62,1.27,0.0547,0.0633,0.0599,0.0615,0.0625
NCI-H1915,1.14,1.03,1.2,1.14,0.675,0.666,0.678,0.706,0.684,1.19,0.867,1.01,1.09,0.997,0.676,0.539,0.561,0.658,0.699
COR-L 105,0.781,0.872,1.24,0.925,0.781,0.82,0.531,0.616,0.715,0.362,0.306,0.374,0.285,0.368,1.11,1.26,1.16,1.15,1.08
HARA,0.977,0.892,0.84,0.335,0.645,0.583,0.439,0.671,0.487,0.971,0.666,0.719,0.808,0.767,0.233,0.28,0.225,0.288,0.226
NCI-H1755,0.881,0.893,0.912,0.918,0.647,0.642,0.699,0.835,0.781,1.27,0.937,1.09,1.29,1.1,0.654,0.377,0.363,0.501,0.451
LXF-289,1.01,0.973,0.973,1.03,0.899,0.97,0.966,0.958,0.736,0.97,0.883,0.884,0.941,0.903,1,0.833,0.866,0.973,0.906
HOP-62,1.09,1.23,1.15,1.34,0.981,0.866,0.971,0.941,0.838,1.35,1.08,1.18,1.11,1,0.412,0.347,0.307,0.318,0.33
NCI-H2126,1.27,1.22,1.15,1.16,0.761,0.724,0.641,0.771,0.66,0.91,0.763,0.72,0.754,0.797,0.879,0.757,0.692,0.765,0.807
NCI-H1355,1.01,1.02,0.975,0.946,0.481,0.434,0.367,0.363,0.382,1.14,0.7,0.929,0.993,1.07,1.12,1.05,1.02,1.15,1.08
NCI-H1944,0.869,0.9,0.842,0.717,0.468,0.436,0.442,0.426,0.455,0.895,0.782,0.841,0.799,0.845,0.659,0.584,0.589,0.617,0.61
